Experimental data published in patent US11427586B2, “1,2,4-oxadiazole derivatives as liver X receptor agonists” (NOVARTIS AG, priority 2019, dated 2022).
pEC50: −log10 of the molar value. Read-outs that look alike come from different tables or passages of the source.

Assays:
[1] = test system: SZ95 sebocytes; experiment: Sentinel Lipid Assay (SLA), desaturation index in SZ95 sebocytes; assay type: cell-based; conditions: Homo sapiens, 72 h; for pEC50: desaturation index, lowest dose used 4.6 nM, read-out: SLA EC50
Outline: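 SZ95 human sebocytes on fibronectin-coated plates, dosed 72 h at 37 °C with 1:3 dilutions from 10 μM; lipids extracted with deuterated triglyceride internal standards and quantified by LC-MS/MS (MRM) as 11 sentinel lipids. Desaturation index from elastic-net coefficients, normalized to DMSO; Amax relative to a reference LXR agonist.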

[2] = test system: SCD1; experiment: Measurement of SCD1 expression in SZ95-SCD1-HiBit cells (HiBiT assay); assay type: cell-based; conditions: Homo sapiens, 48 h; for pEC50: SCD1 protein production, luminescence, initial dilution 1:3 in DMSO, read-out: HiBit EC50
[3] = normalized Amax based on the reference compound Amax of 100%, read-out: SLA Normalized Amax
[4] = SZ95 cells, compared to reference compound, read-out: SLA Amax
[5] = normalized Amax based on the reference compound Amax of 100%, read-out: HiBit Normalized Amax
[6] = SZ95-SCD1-HiBit cells, compared to reference compound, read-out: HiBit Amax

Structure (SMILES) | Emax [1, 3] | pEC50 ([1]; SZ95 cells) | Emax [1, 4] | Emax [2, 5] | pEC50 ([2]; SZ95-SCD1-HiBit cells) | Emax [2, 6]
CC1(C)C(=O)N(Cc2nc(-c3ccc(Oc4ccccc4S(=O)(=O)C4CC(O)C4)c(C(F)(F)F)c3)no2)C(=O)N1CCN1CCOCC1 (stereo not drawn) [Compound 39, 3-((3-(4-(2-((3-hydroxycyclobutyl)sulfonyl)phenoxy)-3-(trifluoromethyl)phenyl)-1,2,4-oxadiazol-5-yl)methyl)-5,5-dimethyl-1-(2-morpholinoethyl)imidazolidine-2,4-dione] | 170% | ≥ 8.34 | 164% | 93.9% | 8.85 | 89.3%
CC1(C)C(=O)N(Cc2nc(-c3ccc(Oc4ccccc4S(=O)(=O)CC4CCCOC4)c(C(F)(F)F)c3)no2)C(=O)N1CCN1CCOCC1 (stereo not drawn) [Compound 40, 5,5-dimethyl-1-(2-morpholinoethyl)-3-((3-(4-(2-(((tetrahydro-2H-pyran-3-yl)methyl)sulfonyl)phenoxy)-3-(trifluoromethyl)phenyl)-1,2,4-oxadiazol-5-yl)methyl)imidazolidine-2,4-dione] | 168% | ≥ 8.34 | 161% | 74.7% | 8.15 | 71%
CC1(C)C(=O)N(Cc2nc(-c3ccc(Oc4ccccc4C(F)(F)F)c(C(F)(F)F)c3)no2)C(=O)N1CCN1CCOCC1 [Compound 41, 5,5-dimethyl-1-(2-morpholinoethyl)-3-((3-(3-(trifluoromethyl)-4-(2-(trifluoromethyl)phenoxy)phenyl)-1,2,4-oxadiazol-5-yl)methyl)imidazolidine-2,4-dione] | 92.2% | ≥ 8.34 | 88.5% | 93% | 9.78 | 88.4%
CC1(C)C(=O)N(Cc2nc(-c3ccc(OCC(C)(C(F)(F)F)C(F)(F)F)c(C(F)(F)F)c3)no2)C(=O)N1CCN1CCOCC1 [Compound 42, 5,5-dimethyl-1-(2-morpholinoethyl)-3-((3-(4-(3,3,3-trifluoro-2-methyl-2-(trifluoromethyl)propoxy)-3-(trifluoromethyl)phenyl)-1,2,4-oxadiazol-5-yl)methyl)imidazolidine-2,4-dione] | 157% | ≥ 8.34 | 150% | 86.1% | 8.82 | 81.9%
CC(CS(=O)(=O)c1ccccc1Oc1ccc(-c2noc(CN3C(=O)N(CCN4CCOCC4)C(C)(C)C3=O)n2)cc1C(F)(F)F)N1CCCC1 (stereo not drawn) [Compound 43, 5,5-dimethyl-1-(2-morpholinoethyl)-3-((3-(4-(2-((2-(pyrrolidin-1-yl)propyl)sulfonyl)phenoxy)-3-(trifluoromethyl)phenyl)-1,2,4-oxadiazol-5-yl)methyl)imidazolidine-2,4-dione] | 147% | ≥ 8.34 | 141% | 84.1% | 8.94 | 80%
CC(C)CS(=O)(=O)c1ccccc1Oc1ccc(-c2noc(CN3C(=O)CN(CCN4CCOCC4)C3=O)n2)cc1C(F)(F)F [Compound 44, 3-((3-(4-(2-(isobutylsulfonyl)phenoxy)-3-(trifluoromethyl)phenyl)-1,2,4-oxadiazol-5-yl)methyl)-1-(2-morpholinoethyl)imidazolidine-2,4-dione] | 86.4% | ≥ 8.34 | 82.9% | 77% | 8.18 | 73.2%
CC(C)CS(=O)(=O)c1ccccc1Oc1ccc(-c2noc(CN3C(=O)N(CCN4CCOCC4)C4(CCC4)C3=O)n2)cc1C(F)(F)F [Compound 45, 7-((3-(4-(2-(isobutylsulfonyl)phenoxy)-3-(trifluoromethyl)phenyl)-1,2,4-oxadiazol-5-yl)methyl)-5-(2-morpholinoethyl)-5,7-diazaspiro[3.4]octane-6,8-dione] | 162% | ≥ 8.34 | 155% | 94.2% | 8.60 | 89.6%
CC(C)CS(=O)(=O)c1ccccc1Oc1ccc(-c2noc(CN3C(=O)N(CCN4CCOCC4)C(C)(CO)C3=O)n2)cc1C(F)(F)F (stereo not drawn) [Compound 46, 5-(hydroxymethyl)-3-((3-(4-(2-(isobutylsulfonyl)phenoxy)-3-(trifluoromethyl)phenyl)-1,2,4-oxadiazol-5-yl)methyl)-5-methyl-1-(2-morpholinoethyl)imidazolidine-2,4-dione] | 170% | ≥ 8.34 | 163% | 98% | 8.22 | 93.2%
O=C1N(Cc2nc(-c3ccc(Oc4ccccc4S(=O)(=O)CC(F)(F)F)c(C(F)(F)F)c3)no2)C(=O)C2(CCN(C3CCC3)CC2)N1CCN1CCOCC1 [Compound 47, 8-cyclobutyl-1-(2-morpholinoethyl)-3-((3-(4-(2-((2,2,2-trifluoroethyl)sulfonyl)phenoxy)-3-(trifluoromethyl)phenyl)-1,2,4-oxadiazol-5-yl)methyl)-1,3,8-triazaspiro[4.5]decane-2,4-dione] | 147% | ≥ 8.34 | 142% | 80.5% | 9.14 | 76.6%
O=C1N(Cc2nc(-c3ccc(Oc4ccccc4S(=O)(=O)CC(F)(F)F)c(C(F)(F)F)c3)no2)C(=O)C2(CCN(C3CCC3)CC2)N1CCC1CCOCC1 [Compound 48, 8-cyclobutyl-1-(2-(tetrahydro-2H-pyran-4-yl)ethyl)-3-((3-(4-(2-((2,2,2-trifluoroethyl)sulfonyl)phenoxy)-3-(trifluoromethyl)phenyl)-1,2,4-oxadiazol-5-yl)methyl)-1,3,8-triazaspiro[4.5]decane-2,4-dione] | 125% | ≥ 8.34 | 120% | 93.5% | 10.28 | 88.9%
CC(C)CS(=O)(=O)c1ccccc1Oc1ccc(-c2noc(CN3C(=O)N(CCN4CCOCC4)C(C)(C)C3=O)n2)cc1Cl [Compound 49, 3-((3-(3-chloro-4-(2-(isobutylsulfonyl)phenoxy)phenyl)-1,2,4-oxadiazol-5-yl)methyl)-5,5-dimethyl-1-(2-morpholinoethyl)imidazolidine-2,4-dione] | 114% | 7.39 | 110% | 74.6% | 7.92 | 70.9%
CC(C)CS(=O)(=O)c1ccccc1Oc1ccc(-c2noc(CN3C(=O)N(CCCN4CCCC4)C(C)(C)C3=O)n2)cc1C(F)(F)F [Compound 50b, 3-((3-(4-(2-(isobutylsulfonyl)phenoxy)-3-(trifluoromethyl)phenyl)-1,2,4-oxadiazol-5-yl)methyl)-5,5-dimethyl-1-(3-(pyrrolidin-1-yl)propyl)imidazolidine-2,4-dione] | 60.6% | 7.63 | 58.2% | 67.1% | 7.53 | 63.8%
CC(C)CS(=O)(=O)c1ccccc1Oc1ccc(-c2noc(CN3C(=O)N(Cc4ccccn4)C(C)(C)C3=O)n2)cc1C(F)(F)F [Compound 51, 3-((3-(4-(2-(isobutylsulfonyl)phenoxy)-3-(trifluoromethyl)phenyl)-1,2,4-oxadiazol-5-yl)methyl)-5,5-dimethyl-1-(pyridin-2-ylmethyl)imidazolidine-2,4-dione] | 120% | ≥ 8.34 | 116% | 88.7% | 7.91 | 84.4%
